According to patent US20050009005A1, “Methods of using quantitative lipid metabolome data” (Lipomics Technologies, Inc., priority 2001, published 2005):

System: de novo fatty acid synthesis
Test: Lipid metabolite profile of plasma, heart, liver and inguinal adipose of CL316,243-treated mice (trial 2; Tables 7 and 8)
Type: in vivo
Conditions: mean
Text: It is understood that the described methods can be used to analyze lipid metabolites from other subjects, including particularly animals other than mice.
Mouse tissue and plasma samples were a generous donation to Lipomics Technologies, Inc., from Dr. Edward Leiter of the Jackson Laboratory (Bar Harbor, Me.). Samples included the plasma, heart, liver and inguinal adipose of mice treated with pharmaceuticals or their corresponding controls.
In trial 2, male, inbred NON mice were fed a control with or without the presence of the β-3 adrenergic agonist CL316,243 for four weeks (at 0.001% CL316,243 by weight in the dietary chow).
In both studies, five treated and five control mice were used. Following the treatments and the killing of the mice, tissues and plasma were taken, chilled to −80 ° C. and shipped to the analysis laboratory at Lipomics Technologies in a frozen state.
Tissue processing and lipid extraction, including provision of internal standards, was carried out essentially as described in Watkins et al. (J. Lipid Res. Papers in Press, 10.1184/jlf.M200169-JLF200, published August 16, 2002), and in co-owned international application PCT/US02/21426, entitled “GENERATING, VIEWING, INTERPRETING, AND UTILIZING A QUANTITATIVE DATABASE OF METABOLITES,” both of which are incorporated in their entirety herein by reference.
The separation of lipid classes was performed in some instance by preparative thin-layer chromatography (TLC). To remove any residual metal or other damaging contaminants on the TLC plates, each plate was washed prior to use. Washing the plates is a three-step process that involves impregnating each plate with ethylenediamine tetraacetic acid (EDTA) and rinsing the plates once with methanol and once with chloroform. Each plate is first impregnated with 1 mM EDTA, pH 5.5, by ascending development using the method of Ruiz (J. Lipid Res. 38, 1482-1489, 1997). After each plate was completely developed, it was dried in air overnight. Once dry, each plate was developed in methanol, dried, and developed in chloroform in the same direction as the development with EDTA. The washed plates were then dried in air. Just prior to use, each plate was activated by heating to 110° C. for 10 minutes.
To prepare the TLC chamber for chromatography, Whatman (Clifton, N.J.) filter paper was cut into 20×80-cm strips and wrapped around the inside wall of a 30×60×10-cm glass development chamber. One hundred milliliters of the appropriate mobile phase was added to the chamber, and the chambers were sealed and allowed to equilibrate. Chambers were considered equilibrated when the solvent front had completely ascended the filter paper. The mobile phase employed for the separation of phospholipid classes (lyso-phospholipids, sphingomyelin, phosphatidylcholine, phosphatidylserine, phosphatidylethanolamine and cardiolipin) was a modification of the solvent system described by Holub and Skeaf (“Nutritional regulation of cellular phosphatidylinositol,” in Methods in Enzymology, ed. Conn, P. M. (Academic Press, Inc., Orlando), pp. 234-243, 1987) consisting of chloroform/methanol/acetic acid/water (100:67:7:4, by volume).
For the separation of neutral lipid classes (free fatty acids, free sterols, triacylglycerides and cholesterol esters), a solvent system consisting of petroleum ether/diethyl ether/acetic acid (80:20:1, by volume) was used (Mangold, Thin Layer Chromatography—A Laboratory Handbook (Springer-Verlag, New York), 1969).
After the TLC plate was activated, the sample extracts were spotted onto the activated plate. As a general rule, samples were spotted at an estimated concentration such that no single lipid class was present at more than 25 jig per centimeter of plate width following chromatography. This ensured that the plate was not overloaded and minimized the risk of cross-contamination between lipid classes (cross-contamination is readily identified during sample analysis as each lipid class contains unique internal standards). […]

C[C@H](Cc1ccc2c(c1)OC(C(=O)[O-])(C(=O)[O-])O2)NC[C@H](O)c1cccc(Cl)c1.[Na+].[Na+] [CL316,243]
16:0 (Heart, PS/I): 302.1 nanomoles per gram
16:1n7 (Heart, PS/I): 48.6 nanomoles per gram
18:0 (Heart, PS/I): 2823.7 nanomoles per gram
18:1n7 (Heart, PS/I): 73.5 nanomoles per gram
18:1n9 (Heart, PS/I): 572.9 nanomoles per gram
14:0 (Heart, TAG): 78.8 nanomoles per gram
16:0 (Heart, TAG): 651.6 nanomoles per gram
16:1n7 (Heart, TAG): 57.3 nanomoles per gram
18:0 (Heart, TAG): 195.5 nanomoles per gram
18:1n7 (Heart, TAG): 28.0 nanomoles per gram
18:1n9 (Heart, TAG): 402.8 nanomoles per gram
14:0 (Heart, lipid class CE): 5.1 percentage of total fatty acids
16:0 (Heart, lipid class CE): 15.4 percentage of total fatty acids
16:1n7 (Heart, lipid class CE): 2.9 percentage of total fatty acids
18:0 (Heart, lipid class CE): 7.0 percentage of total fatty acids
18:1n7 (Heart, lipid class CE): 1.5 percentage of total fatty acids
18:1n9 (Heart, lipid class CE): 30.1 percentage of total fatty acids
Saturates (Heart, lipid class CE): 30.3 percentage of total fatty acids
Total (Heart, lipid class CE): 100.0 percentage of total fatty acids
Total n7 (Heart, lipid class CE): 4.4 percentage of total fatty acids
Total n9 (Heart, lipid class CE): 31.5 percentage of total fatty acids
14:0 (Heart, lipid class CL): 0.6 percentage of total fatty acids
16:0 (Heart, lipid class CL): 2.0 percentage of total fatty acids
16:1n7 (Heart, lipid class CL): 1.7 percentage of total fatty acids
18:0 (Heart, lipid class CL): 3.3 percentage of total fatty acids
18:1n7 (Heart, lipid class CL): 3.2 percentage of total fatty acids
18:1n9 (Heart, lipid class CL): 8.0 percentage of total fatty acids
Saturates (Heart, lipid class CL): 6.5 percentage of total fatty acids
Total (Heart, lipid class CL): 25.0 percentage of total fatty acids
Total n7 (Heart, lipid class CL): 4.9 percentage of total fatty acids
Total n9 (Heart, lipid class CL): 8.5 percentage of total fatty acids
14:0 (Heart, lipid class FFA): 2.9 percentage of total fatty acids
16:0 (Heart, lipid class FFA): 17.8 percentage of total fatty acids
16:1n7 (Heart, lipid class FFA): 2.3 percentage of total fatty acids
18:0 (Heart, lipid class FFA): 7.4 percentage of total fatty acids
18:1n7 (Heart, lipid class FFA): 2.2 percentage of total fatty acids
18:1n9 (Heart, lipid class FFA): 29.9 percentage of total fatty acids
Saturates (Heart, lipid class FFA): 29.2 percentage of total fatty acids
Total (Heart, lipid class FFA): 100.0 percentage of total fatty acids
Total n7 (Heart, lipid class FFA): 4.5 percentage of total fatty acids
Total n9 (Heart, lipid class FFA): 30.8 percentage of total fatty acids
14:0 (Heart, lipid class PC): 0.3 percentage of total fatty acids
16:0 (Heart, lipid class PC): 26.9 percentage of total fatty acids
16:1n7 (Heart, lipid class PC): 0.4 percentage of total fatty acids
18:0 (Heart, lipid class PC): 17.4 percentage of total fatty acids
18:1n7 (Heart, lipid class PC): 1.9 percentage of total fatty acids
18:1n9 (Heart, lipid class PC): 6.6 percentage of total fatty acids
Saturates (Heart, lipid class PC): 45.0 percentage of total fatty acids
Total (Heart, lipid class PC): 50.0 percentage of total fatty acids
Total n7 (Heart, lipid class PC): 2.2 percentage of total fatty acids
Total n9 (Heart, lipid class PC): 6.8 percentage of total fatty acids
14:0 (Heart, lipid class PE): 0.1 percentage of total fatty acids
16:0 (Heart, lipid class PE): 9.3 percentage of total fatty acids
16:1n7 (Heart, lipid class PE): 0.3 percentage of total fatty acids
18:0 (Heart, lipid class PE): 26.7 percentage of total fatty acids
18:1n7 (Heart, lipid class PE): 1.3 percentage of total fatty acids
18:1n9 (Heart, lipid class PE): 4.8 percentage of total fatty acids
Saturates (Heart, lipid class PE): 36.5 percentage of total fatty acids
Total (Heart, lipid class PE): 50.0 percentage of total fatty acids
Total n7 (Heart, lipid class PE): 1.6 percentage of total fatty acids
Total n9 (Heart, lipid class PE): 5.0 percentage of total fatty acids
14:0 (Heart, lipid class PL): 0.3 percentage of total fatty acids
16:0 (Heart, lipid class PL): 16.0 percentage of total fatty acids
16:1n7 (Heart, lipid class PL): 0.5 percentage of total fatty acids
18:0 (Heart, lipid class PL): 19.8 percentage of total fatty acids
18:1n7 (Heart, lipid class PL): 1.8 percentage of total fatty acids
18:1n9 (Heart, lipid class PL): 6.1 percentage of total fatty acids
Saturates (Heart, lipid class PL): 37.0 percentage of total fatty acids
Total (Heart, lipid class PL): 50.0 percentage of total fatty acids
Total n7 (Heart, lipid class PL): 2.3 percentage of total fatty acids
Total n9 (Heart, lipid class PL): 6.5 percentage of total fatty acids
14:0 (Heart, lipid class PS/I): 0.4 percentage of total fatty acids
16:0 (Heart, lipid class PS/I): 3.5 percentage of total fatty acids
16:1n7 (Heart, lipid class PS/I): 0.6 percentage of total fatty acids
18:0 (Heart, lipid class PS/I): 33.1 percentage of total fatty acids
18:1n7 (Heart, lipid class PS/I): 0.9 percentage of total fatty acids
18:1n9 (Heart, lipid class PS/I): 6.7 percentage of total fatty acids
Saturates (Heart, lipid class PS/I): 38.0 percentage of total fatty acids
Total (Heart, lipid class PS/I): 50.0 percentage of total fatty acids
Total n7 (Heart, lipid class PS/I): 1.4 percentage of total fatty acids
Total n9 (Heart, lipid class PS/I): 7.1 percentage of total fatty acids
14:0 (Heart, lipid class TAG): 4.1 percentage of total fatty acids
16:0 (Heart, lipid class TAG): 34.2 percentage of total fatty acids
16:1n7 (Heart, lipid class TAG): 2.9 percentage of total fatty acids
18:0 (Heart, lipid class TAG): 10.1 percentage of total fatty acids
18:1n7 (Heart, lipid class TAG): 1.5 percentage of total fatty acids
18:1n9 (Heart, lipid class TAG): 21.5 percentage of total fatty acids
Saturates (Heart, lipid class TAG): 51.9 percentage of total fatty acids
Total (Heart, lipid class TAG): 33.3 percentage of total fatty acids
Total n7 (Heart, lipid class TAG): 4.4 percentage of total fatty acids
Total n9 (Heart, lipid class TAG): 22.9 percentage of total fatty acids
14:0 (Liver, CE): 45.5 nanomoles per gram
16:0 (Liver, CE): 462.8 nanomoles per gram
16:1n7 (Liver, CE): 84.4 nanomoles per gram
18:0 (Liver, CE): 121.3 nanomoles per gram
18:1n7 (Liver, CE): 31.5 nanomoles per gram
18:1n9 (Liver, CE): 455.4 nanomoles per gram
Saturates (Liver, CE): 668.6 nanomoles per gram
Total n7 (Liver, CE): 115.9 nanomoles per gram
Total n9 (Liver, CE): 482.4 nanomoles per gram
Total nMole of FA (Liver, CE): 1764.6 nanomoles per gram
14:0 (Liver, CL): 21.3 nanomoles per gram
16:0 (Liver, CL): 254.3 nanomoles per gram
16:1n7 (Liver, CL): 85.8 nanomoles per gram
18:0 (Liver, CL): 260.0 nanomoles per gram
18:1n7 (Liver, CL): 215.4 nanomoles per gram
18:1n9 (Liver, CL): 437.0 nanomoles per gram
Saturates (Liver, CL): 556.4 nanomoles per gram
Total n7 (Liver, CL): 301.2 nanomoles per gram
Total n9 (Liver, CL): 473.0 nanomoles per gram
Total nMole of FA (Liver, CL): 1255.5 nanomoles per gram
14:0 (Liver, FFA): 152.9 nanomoles per gram
16:0 (Liver, FFA): 2280.7 nanomoles per gram
16:1n7 (Liver, FFA): 375.0 nanomoles per gram
18:0 (Liver, FFA): 460.2 nanomoles per gram
18:1n7 (Liver, FFA): 273.5 nanomoles per gram
18:1n9 (Liver, FFA): 2293.4 nanomoles per gram
Saturates (Liver, FFA): 2951.3 nanomoles per gram
Total n7 (Liver, FFA): 648.5 nanomoles per gram
Total n9 (Liver, FFA): 2337.2 nanomoles per gram
